This is an account of results in EPA's ToxRefDB 2.

Data set [1] has as its system rat. Particulars: Subchronic oral toxicity in rodents, fischer, Feed, dose end: 90 day, group: systemic, systemic / pathology microscopic / stomach / hyperplasia.
Data set [2] relates to dog. The settings on record: Chronic toxicity; beagle; Oral; Capsule; dose end: 52 week; group: systemic; systemic / pathology microscopic / kidney / dilatation + systemic / pathology microscopic / kidney / fibrosis + systemic / urinalysis / ….
The test system of a further data set is rabbit. Particulars: Prenatal developmental toxicity study; new zealand white; Oral; Gavage/Intubation; dose end: 19 GD; group: maternal; reproductive / reproductive performance / aborted / aborted + systemic / in life observation / body weight / body weight gain + systemic / ….
Data set [3] relates to dog. Particulars: Subchronic oral toxicity in nonrodent, beagle, Capsule, dose end: 13 week, group: systemic.
In data set [4] the test system is rat. Particulars: Combined chronic toxicity/carcinogenicity, fischer, Oral, Feed, dose end: 104 week, group: systemic.
For data set [5], the system named is mouse. The settings on record: Carcinogenicity; b6c3f1; Oral; Feed; dose end: 104 week; group: systemic; systemic / in life observation / body weight / body weight gain + systemic / in life observation / food consumption / food consumption + ….
Data set [6] relates to rat. Particulars: Multigenerational reproductive toxicity study, other, Oral, Feed, dose end: 2 generation.
The subject of data set [7] is dog. Particulars: Chronic toxicity; beagle; Oral; Feed; dose end: 12 month; group: systemic; systemic / pathology microscopic / adrenal gland / fatty change + systemic / pathology microscopic / adrenal gland / hyperplasia + systemic….
The subject of data set [8] is rat. The settings on record: Peri- and post-natal toxicity study (Segment III), sprague dawley, Oral, Gavage/Intubation, dose end: 42 PND.
For data set [9], the system named is dog. The settings on record: Chronic toxicity, beagle, Oral, Feed, dose end: 12 month, group: systemic.
Data set [10] deals with rat. Particulars: Subchronic oral toxicity in rodents, other, Feed, dose end: 13 week, group: systemic.
Data set [11] deals with rat. Particulars: Multigenerational reproductive toxicity study, other, Oral, Feed, dose end: 2 generation. This is another data set of the same source.
Data set [12] deals with rat. Particulars: Combined chronic toxicity/carcinogenicity, sprague dawley, Oral, Feed, dose end: 104 week.
For data set [13], the system named is mouse. Particulars: Carcinogenicity, cd1, Oral, Feed, dose end: 105 week, group: systemic.
The mark [14] stands for this setting: systemic / clinical chemistry / potassium / potassium + systemic / in life observation / clinical signs / abnormal feces + systemic / ….
The mark [15] stands for this setting: group: offspring, systemic / in life observation / body weight / offspring (pup) weight.
[16] abbreviates: group: parental, systemic / pathology gross / stomach / thickened + systemic / pathology microscopic / stomach / acanthosis + systemic / pathology ….
Where [17] appears, read: group: maternal, reproductive / offspring survival early / dead fetuses / dead fetuses.
Setting [18] is: group: offspring, systemic / hematology / leukocyte (wbc) count differential / leukocyte (wbc) + systemic / in life observation / body weight / offspring (pup….
Where [19] appears, read: group: parental, systemic / in life observation / body weight / body weight gain.
The mark [20] stands for this setting: systemic / organ weight / spleen / absolute + systemic / organ weight / spleen / relative to body weight + systemic / pathology microscopic….
[21] abbreviates: systemic / pathology gross / liver / accentuated lobular pattern + systemic / pathology microscopic / eye / lesion(s) (nos) + systemic / ….
Setting [22] is: systemic / pathology microscopic / kidney / hypertrophy.
Where [23] appears, read: systemic / pathology microscopic / kidney / hypertrophy + systemic / in life observation / body weight / body weight + systemic / in life ….
Where [24] appears, read: group: cholinesterase, cholinesterase / cholinesterase / cholinesterase / cholinesterase (che).
The mark [25] stands for this setting: group: offspring, systemic / in life observation / body weight / offspring (pup) weight + developmental / offspring survival late / lactation index / ….
[26] abbreviates: group: reproductive, reproductive / offspring survival early / litter size / litter size.
Setting [27] is: group: cholinesterase, cholinesterase / cholinesterase / cholinesterase / erythrocyte cholinesterase (che) + cholinesterase / cholinesterase / cholinesterase / ….
Setting [28] is: group: cholinesterase, cholinesterase / cholinesterase / cholinesterase / plasma cholinesterase (che).
Setting [29] is: group: systemic, systemic / clinical chemistry / urea nitrogen / urea nitrogen.
Where [30] appears, read: group: systemic, systemic / clinical chemistry / urea nitrogen / urea nitrogen + systemic / organ weight / brain / relative to body weight + systemic / organ….
Where [31] appears, read: systemic / in life observation / body weight / body weight gain.

With `CCC([O-])=C1C(=O)CC(C(=O)[O-])CC1=O.[Ca+2]` (centres undefined) [Prohexadione-calcium], the LEL in the data set with rat [1] was 734 mg/kg/day; in the data set with dog [2], 200 mg/kg/day; in the data set on rabbit it was 200 mg/kg/day; in the data set on dog [3] (systemic / clinical chemistry / potassium / potassium + systemic / pathology microscopic / kidney / dilatation + systemic / in life …), 400 mg/kg/day; in the data set with rat [4] (systemic / pathology microscopic / thyroid gland / dilatation), 114 mg/kg/day; in the data set on mouse [5], 2850 mg/kg/day. The LEL turned out to be 385 mg/kg/day in the data set with rat [6] (setting [15]) and 35.5 mg/kg/day with rat [6] (setting [16]). The LOAEL in the data set with rat [1] came to 734 mg/kg/day; in the data set on dog [2] it was 200 mg/kg/day; in the data set on rabbit it was 200 mg/kg/day; with dog [3] (systemic / clinical chemistry / potassium / potassium + systemic / pathology microscopic / kidney / dilatation), 400 mg/kg/day; with rat [4] (systemic / hematology / leukocyte (wbc) count differential / leukocyte (wbc)), 469 mg/kg/day; in the data set with mouse [5] it was 2850 mg/kg/day. The lowest-observed-adverse-effect level (LOAEL) in the data set with rat [6] (setting [15]) is 3850 mg/kg/day; in the data set on rat [6] (group: parental, systemic / in life observation / mortality / mortality), 385 mg/kg/day. For the same molecule, the NEL in the data set on rat [1] is 73.1 mg/kg/day; in the data set on dog [2] it was 20 mg/kg/day; in the data set on rabbit, 40 mg/kg/day; in the data set on dog [3] (setting [14]), 80 mg/kg/day; in the data set with rat [4] (systemic / pathology microscopic / thyroid gland / dilatation + systemic / in life observation / body weight / body weight + systemic / in …) it was 22.3 mg/kg/day; with mouse [5] it was 279 mg/kg/day. For the same molecule, the figures for the NEL in the data set on rat [6] (setting [15]) and in the data set on rat [6] (setting [16]) were 35.5 mg/kg/day and less than 35.5 mg/kg/day, respectively. For the same molecule, the NOAEL in the data set with rat [1] turned out to be 73.1 mg/kg/day; with dog [2], 20 mg/kg/day; in the data set with rabbit, 40 mg/kg/day; with dog [3] (setting [14]), 80 mg/kg/day; with rat [4] (systemic / hematology / leukocyte (wbc) count differential / leukocyte (wbc) + systemic / in life observation / body weight / body weight + …), 93.9 mg/kg/day; with mouse [5], 279 mg/kg/day. Also, the no observed adverse effect level (NOAEL) with rat [6] (setting [15]) was 385 mg/kg/day; with rat [6] (group: parental, systemic / in life observation / mortality / mortality + systemic / in life observation / body weight / body weight + systemic / pathology …) it was 35.5 mg/kg/day.
In the case of `CC(C)(C)C(O)(CCc1ccc(Cl)cc1)Cn1cncn1` (centres undefined) [Tebuconazole], the LEL in the data set with dog [7] was 4.39 mg/kg/day; in the data set with rat [8] (setting [17]), 60 mg/kg/day; in the data set with rat [8] (setting [18]), 60 mg/kg/day; in the data set with rat [8] (setting [19]), 60 mg/kg/day; in the data set with dog [9] (setting [20]), 15.5 mg/kg/day. Further, the lowest-observed-adverse-effect level (LOAEL) is 4.39 mg/kg/day in the data set on dog [7]; greater than 60 mg/kg/day in the data set on rat [8] (setting [17]); greater than 60 mg/kg/day in the data set with rat [8] (setting [18]); greater than 60 mg/kg/day in the data set on rat [8] (setting [19]); 77.3 mg/kg/day with dog [9] (setting [21]). Further, the NEL in the data set on dog [7] was 2.96 mg/kg/day; in the data set with rat [8] (setting [17]), 20 mg/kg/day; with rat [8] (setting [18]), 20 mg/kg/day; in the data set on rat [8] (setting [19]), 20 mg/kg/day; with dog [9] (setting [20]) it was less than 15.5 mg/kg/day. Moreover, the no-observed-adverse-effect level (NOAEL) was 2.96 mg/kg/day in the data set on dog [7]; no less than 60 mg/kg/day in the data set on rat [8] (setting [17]); no less than 60 mg/kg/day in the data set with rat [8] (setting [18]); no less than 60 mg/kg/day in the data set on rat [8] (setting [19]); 15.5 mg/kg/day with dog [9] (setting [21]).
For `CCOP(=O)([O-])C(N)=O.[NH4+]` [Fosamine ammonium], in the data set on rat [10] (setting [22]), the LEL is 50 mg/kg/day and the LOAEL is 50 mg/kg/day. Moreover, in the data set on rat [10] (setting [23]), the NEL turned out to be 10 mg/kg/day and the NOAEL turned out to be 10 mg/kg/day.
With `COP(=O)(OC)SCn1c(=O)oc2cc(Cl)cnc21` [Azamethiphos], the LEL with rat [11] (setting [24]) was determined as 10 mg/kg/day; in the data set on rat [11] (setting [25]), 50 mg/kg/day; with rat [11] (setting [19]) it was 10 mg/kg/day; in the data set on rat [11] (setting [26]) it was 50 mg/kg/day; with rat [12] (setting [28]), 1.1 mg/kg/day; with rat [12] (setting [29]), 0.8 mg/kg/day. The same molecule displayed an LEL in the data set on mouse [13] (setting [31]) of 6.2 mg/kg/day. The LOAEL with rat [11] (setting [24]) is 10 mg/kg/day; in the data set on rat [11] (setting [15]) it was 50 mg/kg/day; in the data set on rat [11] (setting [19]), 10 mg/kg/day; with rat [11] (setting [26]) it was 50 mg/kg/day; in the data set on rat [12] (setting [27]), 8.1 mg/kg/day; with rat [12] (setting [30]) it was greater than 62.6 mg/kg/day. In addition, the LOAEL in the data set on mouse [13] (systemic / pathology microscopic / intestine small / hyperplasia) amounted to 60.2 mg/kg/day. Also, the NEL was 2 mg/kg/day with rat [11] (setting [24]); 10 mg/kg/day in the data set on rat [11] (setting [25]); 2 mg/kg/day in the data set on rat [11] (setting [19]); 10 mg/kg/day with rat [11] (setting [26]); less than 1.1 mg/kg/day in the data set with rat [12] (setting [28]); less than 0.8 mg/kg/day in the data set on rat [12] (setting [29]). Besides, the NEL in the data set with mouse [13] (setting [31]) is less than 6.2 mg/kg/day. The NOAEL with rat [11] (setting [24]) was 2 mg/kg/day; with rat [11] (setting [25]), 10 mg/kg/day; in the data set on rat [11] (setting [19]) it was 2 mg/kg/day; with rat [11] (setting [26]), 10 mg/kg/day; in the data set on rat [12] (setting [27]), 0.8 mg/kg/day; with rat [12] (setting [30]), no less than 62.6 mg/kg/day. Further, in the data set with mouse [13] (systemic / pathology microscopic / intestine small / hyperplasia + systemic / hematology / hematocrit (hct) / hematocrit (hct) + systemic / …), the NOAEL is 6.2 mg/kg/day.
